This is an account of results in US9718792B2, “Isoxazoline hydroxamic acid derivatives as LpxC inhibitors” (priority 2014, dated 2017).

≈ marks a conversion by molar mass, not a printed value. Like-named read-outs stand apart in the source and are kept apart here. Where only a bound is given, the exact number is not on record here.

One assay addresses P. aeruginosa LpxC (Pseudomonas aeruginosa (strain ATCC 15692 / DSM 22644 / CIP 104116 / JCM 14847 / LMG 12228 / 1C / PRS 101 / PAO1), UniProt P47205). Kind of assay: P. aeruginosa LpxC Inhibition Assay. Type of assay: biochemical. The settings on record: 1 nM P. aeruginosa LpxC, 2 μM substrate, LC-MS/MS; read-out: PA LpxC IC50. The text has this:
The P. aeruginosa LpxC protein is produced according to the general method of Hyland et al (Journal of Bacteriology 1997 179, 2029-2037: Cloning, expression and purification of UDP-3-O-acyl-GIcNAc deacetylase from Pseudomonas aeruginosa: a metalloamidase of the lipid A biosynthesis pathway). The LC-MS/MS method for quantitation of LpxC product was developed using an Agilent 1200 Capillary HPLC system coupled to an Applied Biosystems MDS Sciex 4000QTRAP mass spectrometer. Both instruments are controlled using the Applied Biosystems MDS Sciex Analyst software. LpxC reaction product (UDP-3-O—(R-3-hydroxyacyl)-glucosamine) was produced by hydrolysis of LpxC substrate catalyzed by P.a. LpxC and purified using reversed phase chromatography on a Phenomenex Luna C18(2) 4.6×50 mm column. An LpxC product calibration curve was generated to evaluate the sensitivity and dynamic range of the LC-MS/MS method. Briefly, compounds are pre-incubated with 1 nM P. aeruginosa LpxC for 30 min. at room temperature. Reactions are initiated by the addition of 2 μM UDP-3-O—(R-3-hydroxydecanoyl)-GIcNAc. Reactions are conducted in a 384-well plate with a total volume of 50 μL in each well containing 50 mM Sodium phosphate pH 7.5, 0.005% Trition X-100 for 20 min at room temperature. After quenching with 1.8% HOAc (5 μL of a 20% HOAc added to each well), reaction mixtures are analyzed using the LC-MS/MS method and peak areas are transformed into product concentration using a LpxC product calibration curve. Total activity (0% inhibition control) is obtained from reactions with no inhibitors and 100% inhibition control is the background using quenched samples before reaction starts. For IC50 determinations, peak areas are converted to percent inhibition in Microsoft Excel. Percent inhibition values are plotted vs. log compound concentration using XLfit. Data is fit to the four-parameter logistic equation using the non-linear regression algorithm in XLfit to return the IC50 and hill slope values.

Another assay relates to P. aeruginosa PAO1. The assay can be described thus: Susceptibility Testing (MIC, broth microdilution). The assay is classed as cell-based, Pseudomonas aeruginosa. Particulars: Pseudomonas aeruginosa, PAO1, 20 h, read-out: PAO1 MIC. As to the method: Bacterial isolates were cultivated from −70° C. frozen stocks by two consecutive overnight passages at 35° C. in ambient air on 5% blood agar (Remel, Lenexa, Kans.). Quality control and P. aeruginosa ATCC 27853) is from the American Type Culture Collection (ATCC; Rockville, Md.) and PAO1 was received from Dr. K. Poole.
Minimal Inhibitory Concentrations (MICs) were determined by the broth microdilution method in accordance with Clinical and Laboratories Institute (CLSI) guidelines. In brief, fresh bacterial overnight cultures were resuspended in sterile saline, adjusted to a 0.5 McFarland turbidity standard and then diluted […] in cation adjusted Mueller-Hinton Broth II (MHB; Remel BBL) to yield a final inoculum of approximately 5×10^5 colony-forming units (CFU)/mL. Two-fold serial dilutions of compounds were prepared in 100% dimethyl sulfoxide (DMSO) at 100-fold the highest final assay concentration; the resulting dilution series of compounds were diluted 1:10 with sterile water. Ten μl of the drug dilution series in 10% DMSO was transferred to microtiter wells and 90 μl of bacterial suspension was inoculated into the wells. All inoculated microdilution trays were incubated in ambient air at […] for 20 hours. Following incubation, assay plates were read in a microtiter plate reader at 600 nm and visually inspected to confirm the MIC endpoint well with the OD value. The lowest concentration of the compound that prevented visible growth was recorded as the MIC. Performance of the assay was monitored by testing ciprofloxacin against laboratory quality control strains in accordance with guidelines of the CLSI.
(Dilution methods test growth across graded concentrations, often in twofold steps.)

Setting [1] is: P. aeruginosa PAO1, broth microdilution, 20 hours.

Usually IC50 stands for the concentration at which inhibition is half-maximal. By MIC is commonly meant the smallest concentration in the dilution series that meets the test's criterion for growth inhibition.

With `CC(CC1CC(c2ccc(Br)cc2)=NO1)(C(=O)NO)S(C)(=O)=O` (single isomer, unassigned) [Compound 1-B, 3-(3-(4-bromophenyl)-4,5-dihydroisoxazol-5-yl)-N-hydroxy-2-methyl-2-(methylsulfonyl)propanamide], the IC50 at P. aeruginosa LpxC was less than 0.5 nM. The MIC with P. aeruginosa PAO1 (setting [1]) turned out to be 1 µg/mL (≈ 2.47 µM). In the case of `CC(CC1CC(c2ccc(-c3ccccc3)cc2)=NO1)(C(=O)NO)S(C)(=O)=O` (single isomer, unassigned) [Compound 3-B, 3-(3-([1,1′-biphenyl]-4-yl)-4,5-dihydroisoxazol-5-yl)-N-hydroxy-2-methyl-2-(methylsulfonyl)propanamide], on P. aeruginosa LpxC, the IC50 worked out at 1 nM. In the assay on P. aeruginosa PAO1 (setting [1]), the MIC was 0.25 µg/mL (≈ 0.621 µM). In the case of `CC#CCOc1ccc(C2=NOC(CC(C)(C(=O)NO)S(C)(=O)=O)C2)cc1` (single isomer, unassigned) [Compound 4-B, 3-(3-(4-(but-2-yn-1-yloxy)phenyl)-4,5-dihydroisoxazol-5-yl)-N-hydroxy-2-methyl-2-(methylsulfonyl)propanamide], the IC50 at P. aeruginosa LpxC came out at 24 nM. Also, the MIC in the assay on P. aeruginosa PAO1 stood at 8 µg/mL (≈ 20.3 µM). In the case of `CC(CC1CC(c2ccc(C3CC3)cc2)=NO1)(C(=O)NO)S(C)(=O)=O` (single isomer, unassigned) [Compound 5-A, 3-(3-(4-cyclopropylphenyl)-4,5-dihydroisoxazol-5-yl)-N-hydroxy-2-methyl-2-(methylsulfonyl)propanamide], the IC50 on P. aeruginosa LpxC worked out at 7 nM. Further, in the assay with P. aeruginosa PAO1 (setting [1]), the MIC stood at 2 µg/mL (≈ 5.46 µM). The corresponding values for `CCC#Cc1ccc(C2=NOC(CC(C)(C(=O)NO)S(C)(=O)=O)C2)cc1` (single isomer, unassigned) [Compound 8-B, 3-(3-(4-(but-1-yn-1-yl)phenyl)-4,5-dihydroisoxazol-5-yl)-N-hydroxy-2-methyl-2-(methylsulfonyl)propanamide] are 0.5 nM and 1 µg/mL (≈ 2.64 µM). On to `CC(CC1CC(c2ccc(C#CCCO)cc2)=NO1)(C(=O)NO)S(C)(=O)=O` (single isomer, unassigned) [Compound 10-B, N-hydroxy-3-(3-(4-(4-hydroxybut-1-yn-1-yl)phenyl)-4,5-dihydroisoxazol-5-yl)-2-methyl-2-(methylsulfonyl)propanamide], for which the IC50 on P. aeruginosa LpxC was less than 0.5 nM. In addition, in the assay on P. aeruginosa PAO1 (setting [1]), the MIC amounted to 1 µg/mL (≈ 2.54 µM).

For the compound `CC#Cc1ccc(C2=NOC(CC(C)(C(=O)NO)S(C)(=O)=O)C2)cc1F` (single isomer, unassigned) [Compound 12-B, 3-(3-(3-fluoro-4-(prop-1-yn-1-yl)phenyl)-4,5-dihydroisoxazol-5-yl)-N-hydroxy-2-methyl-2-(methylsulfonyl)propanamide], the IC50 at P. aeruginosa LpxC was found to be 2 nM. The MIC with P. aeruginosa PAO1 (setting [1]) amounted to 2 µg/mL (≈ 5.23 µM). Turning to `CC(CC1CC(c2ccc(C#CC3CC3)c(F)c2)=NO1)(C(=O)NO)S(C)(=O)=O` (single isomer, unassigned) [Compound 13-B, 3-(3-(4-(cyclopropylethynyl)-3-fluorophenyl)-4,5-dihydroisoxazol-5-yl)-N-hydroxy-2-methyl-2-(methylsulfonyl)propanamide], the IC50 at P. aeruginosa LpxC came to 1 nM. In addition, the MIC in the assay on P. aeruginosa PAO1 (setting [1]) is 1 µg/mL (≈ 2.45 µM). The corresponding values for `CC#Cc1ccc(C2=NOC(CC(C)(C(=O)NO)S(C)(=O)=O)C2)nc1` (single isomer, unassigned) [Compound 14-B, N-hydroxy-2-methyl-2-(methylsulfonyl)-3-(3-(5-(prop-1-yn-1-yl)pyridin-2-yl)-4,5-dihydroisoxazol-5-yl)propanamide] are 17 nM and 8 µg/mL (≈ 21.9 µM). The matching figures for `CC(CC1CC(c2ccc(C#CC3CC3)cn2)=NO1)(C(=O)NO)S(C)(=O)=O` (single isomer, unassigned) [Compound 15-B, 3-(3-(5-(cyclopropylethynyl)pyridin-2-yl)-4,5-dihydroisoxazol-5-yl)-N-hydroxy-2-methyl-2-(methylsulfonyl)propanamide]: 4 nM and 8 µg/mL (≈ 20.4 µM). For `CC#Cc1ccc(C2=NOC(CC(C)(C(=O)NO)S(C)(=O)=O)C2)c(F)c1` (single isomer, unassigned) [Compound 16-B, 3-(3-(2-fluoro-4-(prop-1-yn-1-yl)phenyl)-4,5-dihydroisoxazol-5-yl)-N-hydroxy-2-methyl-2-(methylsulfonyl)propanamide], the IC50 on P. aeruginosa LpxC was 0.6 nM. In addition, the MIC with P. aeruginosa PAO1 (setting [1]) came out at 1 µg/mL (≈ 2.61 µM). The matching figures for `CC(CC1CC(c2ccc(C#CC3CC3)cc2F)=NO1)(C(=O)NO)S(C)(=O)=O` (single isomer, unassigned) [Compound 17-B, 3-(3-(4-(cyclopropylethynyl)-2-fluorophenyl)-4,5-dihydroisoxazol-5-yl)-N-hydroxy-2-methyl-2-(methylsulfonyl)propanamide]: less than 0.5 nM and 0.5 µg/mL (≈ 1.22 µM). Consider `C[C@@H](O)COc1ccc(-c2ccc(C3=NO[C@@H](C[C@](C)(C(=O)NO)S(C)(=O)=O)C3)cc2)cc1` [Compound 61, (R)—N-hydroxy-3-((R)-3-(4′-((R)-2-hydroxypropoxy)-[1,1′-biphenyl]-4-yl)-4,5-dihydroisoxazol-5-yl)-2-methyl-2-(methylsulfonyl)propanamide], for which the MIC in the assay with P. aeruginosa PAO1 (setting [1]) was 0.25 µg/mL (≈ 0.525 µM).

On to `C[C@@](C[C@H]1CC(c2ccc(-c3ccc(C(O)CO)cc3)cc2)=NO1)(C(=O)NO)S(C)(=O)=O` (stereo partly drawn) [Compound 72, (2R)-3-((5R)-3-(4′-(1,2-dihydroxyethyl)-[1,1′-biphenyl]-4-yl)-4,5-dihydroisoxazol-5-yl)-N-hydroxy-2-methyl-2-(methylsulfonyl)propanamide], for which, in the assay on P. aeruginosa PAO1 (setting [1]), the MIC is 0.35 µg/mL (≈ 0.757 µM). Consider `C[C@@](C[C@H]1CC(c2ccc(-c3ccc(C4(CO)CC4)cc3)cc2)=NO1)(C(=O)NO)S(C)(=O)=O` [Compound 73, (R)—N-hydroxy-3-((R)-3-(4′-(1-(hydroxymethyl)cyclopropyl)-[1,1′-biphenyl]-4-yl)-4,5-dihydroisoxazol-5-yl)-2-methyl-2-(methylsulfonyl)propanamide], for which the MIC with P. aeruginosa PAO1 (setting [1]) was found to be 0.25 µg/mL (≈ 0.529 µM). As for `COc1cc(-c2ccc(C3=NO[C@@H](C[C@](C)(C(=O)NO)S(C)(=O)=O)C3)cc2)c(F)cn1` [Compound 80, (R)-3-((R)-3-(4-(5-fluoro-2-methoxypyridin-4-yl)phenyl)-4,5-dihydroisoxazol-5-yl)-N-hydroxy-2-methyl-2-(methylsulfonyl) propanamide], the MIC in the assay with P. aeruginosa PAO1 (setting [1]) worked out at 1 µg/mL (≈ 2.21 µM). The same measure, in the same setting: the same measure for `C[C@@](C[C@H]1CC(c2ccc(C#Cc3ccc([C@@H](O)CO)cc3)cc2)=NO1)(C(=O)NO)S(C)(=O)=O` [Compound 97, (R)-3-((R)-3-(4-((4-((R)-1,2-dihydroxyethyl)phenyl)ethynyl)phenyl)-4,5-dihydroisoxazol-5-yl)-N-hydroxy-2-methyl-2-(methylsulfonyl) propanamide]: 0.71 µg/mL (≈ 1.46 µM). `COc1ccc(-c2ccc(C3=NO[C@@H](C[C@](C)(C(=O)NO)S(C)(=O)=O)C3)cc2F)cn1` [Compound 105, (R)-3-((R)-3-(3-fluoro-4-(6-methoxypyridin-3-yl)phenyl)-4,5-dihydroisoxazol-5-yl)-N-hydroxy-2-methyl-2-(methylsulfonyl)propanamide]: the IC50 on P. aeruginosa LpxC turned out to be 1 nM. In the case of `C[C@@](C[C@H]1CC(c2ccc(-c3ccc(CO)nc3)c(F)c2)=NO1)(C(=O)NO)S(C)(=O)=O` [Compound 109, (R)-3-((R)-3-(3-fluoro-4-(6-(hydroxymethyl)pyridin-3-yl)phenyl)-4,5-dihydroisoxazol-5-yl)-N-hydroxy-2-methyl-2-(methylsulfonyl)propanamide], the IC50 on P. aeruginosa LpxC amounted to 5 nM.
